Data from patent US20090054346A1, “ELASTIN PRODUCTION-ENHANCING AGENTS” (Rohto Pharmaceutical Co., Ltd., priority 2006, published 2009).
Peptide text beside a SMILES is read from it.

Tested on: Normal human skin-derived fibroblasts (CRL-1836)
Test: Microscopic observation of fibroblasts after 72 hours of culture (cell count, morphology)
Format: cell-based
Conditions: 1000 μg/ml peptide
Method: Normal human skin-derived fibroblasts (CRL-1836; ATCC) were cultured in 60-mm dishes. More specifically, the cells were plated in dishes at a density of 2500 cells/cm^2, and cultured until subconfluent at 37° C. under 5% carbon dioxide gas and 95% air for 6 days. 3 ml of Dulbecco's Modified Eagle Medium (DMEM) supplemented with […] fetal bovine serum (FBS) was used in the culture. Then, the culture medium was changed to the same medium without FBS (namely, serum-free medium), and the culture was continued for 1 day. Next, the culture medium was changed to 3 ml of serum-free medium supplemented with 1000 μg/ml of the LEHA peptide prepared in Example 1, and the cells were cultured for 72 hours. Meanwhile, the culture in which the medium was changed to 3 ml of serum-free culture medium without the LEHA peptide was used as a control.
After 72 hours of culture, the cells in the dishes containing the LEHA peptide and the control dishes were observed under a microscope.

CC(C)C[C@H](N)C(=O)N[C@@H](CCC(=O)O)C(=O)N[C@@H](Cc1c[nH]cn1)C(=O)N[C@@H](C)C(=O)O [LEHA peptide, Leu-Glu-His-Ala] (H-LEHA-OH)
cell counts versus control dishes: not significantly different
morphological abnormality of the cells: no morphological abnormality was observed
